Reference: the supplement of paper PMC10307832

compound: CC1=CC(=C(N1C2=CC=C(C=C2)Cl)C)C(=O)CN3CCCCC3 [IU1-47] + Nc1nc2[nH]cc(CCc3ccc(C(=O)N[C@@H](CCC(=O)O)C(=O)O)cc3)c2c(=O)[nH]1 [Pemetrexed] (partner 0.2 µM); assay: relative viability (nuclei count vs DMSO), 5 days (fraction); higher = more cells survive; details: first compound 0.08 µM
Summary of the method: (§1)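 Values are medians from duplicate plates. Each reflects relative viability, defined as the nuclei count of treated wells over that of vehicle wells. Lung cancer cell lines in 1536-well plates were pin-tool dosed one day after seeding with one drug alone or with a fixed anchor-drug dose plus five library-drug doses (not always all listed) in √10 steps, then fixed, stained and imaged at 4× after 5 days.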

Cell Line	relative viability
HOP-62	0.398
LU99A	0.178
BEN	0.732
HARA	0.258
HCC-78	0.898
NCI-H322M	0.662
LCLC-97TM1	0.173
NCI-H2009	1.1
A-427	1.06
NCI-H441	0.255
NCI-H661	0.925
NCI-H1734	0.454
NCI-H460	0.0569
NCI-H2347	0.436
SK-LU-1	0.981
201T	0.458
NCI-H1915	0.586

Cell Line	relative viability
HCC-827	0.26
LXF-289	0.888
NCI-H23	0.608
NCI-H647	0.155
CAL-12T	1.2
NCI-H1651	0.587
EPLC-272H	0.332
NCI-H2228	0.37
NCI-H1355	1.06
NCI-H3122	0.197
NCI-H1437	0.336
NCI-H1755	0.434
NCI-H2023	0.22
HCC-15	0.229
PC-14	0.169
EKVX	0.407

same assay, conditions: first compound 0.253 µM

Cell Line	relative viability
HOP-62	0.454
LU99A	0.227
BEN	0.765
HCC-78	0.889
NCI-H322M	0.648
LCLC-97TM1	0.15
NCI-H2009	1.05
A-427	1
NCI-H441	0.273
NCI-H661	0.961
NCI-H1734	0.415
NCI-H460	0.0572
NCI-H2347	0.39
SK-LU-1	1.05
201T	0.386
NCI-H1915	0.515

Cell Line	relative viability
HCC-827	0.282
LXF-289	0.886
NCI-H647	0.189
CAL-12T	1.39
NCI-H1651	0.559
EPLC-272H	0.422
NCI-H2228	0.345
NCI-H1355	1.08
NCI-H3122	0.206
NCI-H1437	0.336
NCI-H1755	0.439
NCI-H2023	0.232
HCC-15	0.219
PC-14	0.129
EKVX	0.406

same assay, conditions: first compound 0.8 µM

Cell Line	relative viability
HOP-62	0.373
LU99A	0.155
BEN	0.899
HARA	0.199
HCC-78	0.929
NCI-H322M	0.829
LCLC-97TM1	0.154
NCI-H2009	1.01
A-427	0.993
NCI-H441	0.278
NCI-H661	0.977
NCI-H1734	0.446
NCI-H460	0.0551
NCI-H2347	0.447
SK-LU-1	1.03
201T	0.317
NCI-H1915	0.46

Cell Line	relative viability
HCC-827	0.275
LXF-289	0.851
NCI-H23	0.59
NCI-H647	0.182
CAL-12T	1.15
NCI-H1651	0.616
EPLC-272H	0.316
NCI-H2228	0.387
NCI-H1355	1.12
NCI-H3122	0.204
NCI-H1437	0.314
NCI-H1755	0.825
NCI-H2023	0.246
HCC-15	0.226
PC-14	0.171
EKVX	0.423

same assay, conditions: first compound 2.53 µM

Cell Line	relative viability
HOP-62	0.223
LU99A	0.187
BEN	0.523
HARA	0.26
HCC-78	0.865
NCI-H322M	0.582
NCI-H2009	1.08
A-427	1
NCI-H441	0.306
NCI-H661	0.925
NCI-H1734	0.443
NCI-H460	0.0515
NCI-H2347	0.395
SK-LU-1	1.02
201T	0.261
NCI-H1915	0.562
HCC-827	0.291
LXF-289	0.945
NCI-H23	0.708
NCI-H647	0.166
CAL-12T	1.34
NCI-H1651	0.311
EPLC-272H	0.327
NCI-H2228	0.362
NCI-H3122	0.218
NCI-H1437	0.308
NCI-H1755	0.454
NCI-H2023	0.208
HCC-15	0.218
PC-14	0.153

same assay, conditions: first compound 8 µM

Cell Line	relative viability
HOP-62	0.365
LU99A	0.191
BEN	0.674
HARA	0.22
HCC-78	0.862
NCI-H322M	0.607
LCLC-97TM1	0.172
NCI-H2009	1.05
A-427	0.937
NCI-H441	0.265
NCI-H661	0.947
NCI-H1734	0.463
NCI-H460	0.0695
NCI-H2347	0.419
SK-LU-1	0.887
201T	0.389
NCI-H1915	0.553

Cell Line	relative viability
HCC-827	0.26
LXF-289	0.856
NCI-H23	0.692
NCI-H647	0.159
CAL-12T	1.04
NCI-H1651	0.451
EPLC-272H	0.313
NCI-H2228	0.362
NCI-H1355	1.07
NCI-H3122	0.205
NCI-H1437	0.311
NCI-H1755	0.445
NCI-H2023	0.204
HCC-15	0.228
PC-14	0.144
EKVX	0.453

compound: Cc1nc(C(=O)NCC(=O)O)c(O)c2ccc(Oc3ccccc3)cc12 [FG-4592] + CC(C)C[C@H](NC(=O)[C@H](Cc1ccccc1)NC(=O)c1cnccn1)B(O)O [Bortezomib] (partner 0.002 µM); assay: as above; details: first compound 0.08 µM
Summary of the method: as §1

Cell Line	relative viability
HOP-62	0.602
